# Tested on: Daudi human Burkitt’s Lymphoma cell line
# Experiment: Study 7: Daudi xenograft human Burkitt's lymphoma subcutaneous tumor model (daratumumab or AB79)
# Assay type: in vivo, CB17 SCID mice
# Procedure: Low tumor volumes can cause problems with the data analysis, so all measurements below 25 cubic mm (including 0 values) were excluded from the analysis. After this exclusion step, the tumor volume was assumed to follow an exponential growth model. More specifically, for a given animal and treatment group,
# Pairwise comparisons were performed, where the mean growth rates were compared for various pairs of treatment conditions. The results were summarized using the growth rate inhibition (GRI). Suppose µT and µC are the mean tumor growth rates for the treatment and reference groups, respectively. Define
# Here, µAB, µA, µB, and µControl are the mean growth rates for the combination, drug A, drug B, and control groups, respectively. As before, µv is the mean tumor growth rate for the vehicle group, which in most cases is the same as the control group. The standard error of the synergy score was calculated as the square root of the sum of squared standard errors across the four groups. The degrees of freedom were estimated using the Welch-Satterthwaite equation. A hypothesis test was performed to determine if the synergy score differed from 0. P-values were calculated by dividing the synergy score by its standard error and tested against a t-distribution (two-tailed) with the above-calculated degrees of freedom. A P value of less than 0.05 is statistically significant.
# The combination results can be interpreted as follows. Statistically significant negative synergy scores indicate a synergistic combination (“Syn.”). Statistically significant positive synergy scores indicate a sub-additive combination (“Sub-add.”) when the combination performs better (i.e. has a lower growth rate) than the best performing single agent. Statistically significant positive synergy scores indicate an antagonistic combination (“Antag.”) when the combination performs worse than the best performing single agent. Scores that are not statistically significant should be considered additive (“Add.”).
# Daudi is a human Burkitt’s Lymphoma cell line. A Daudi human xenograft tumor model was generated by subcutaneous inoculation with 2.0 × 10^6 Daudi cells (cell suspension) in 7 weeks old female CB17 SCID mice (Charles River Laboratories, 251 Ballardvale St., Wilmington, MA) in the flank. When the mean tumor volume reached approximately 110 mm3, the animals were randomized into one vehicle control and six treatment groups (n=8/group). Mice were then dosed with 20% HPβCD or Compound I-263a and/or daratumumab or AB79 over a 21-day period. Tumor growth and body weight were measured twice per week during the treatment and post-treatment periods, and mice were humanely euthanized once they had reached their humane endpoint.
# A 0.75 mg/mL stock solution of I-263a was formulated weekly in 20% HPβCD and administered intravenously (IV) based on an average body weight using a 0.2 mL dosing volume. Final doses of I-263a received were 7.5 mg/kg. I-263a was administered on a BIW schedule for 3 weeks (Days 1, 4, 8, 11, 15, and 18). Daratumumab (anti-CD38 antibody) (Myoderm Medical Supplies, 48 E Main St., Norristown, PA 19401) was purchased at the beginning of the study and stored at 4° C. according to manufacturer’s instructions. Final dose of daratumumab received was 7.5 mg/kg based on average body weight. Daratumumab was administered intraperitoneally (IP) using a 0.1 mL dosing volume, on a BIW schedule for 3 weeks (Days, 1, 4, 8, 11, 15, and 18). AB79 was formulated on the day of dosing in 0.9% saline and administered intraperitoneally (IP) using a 0.1 mL dosing volume, on a BIW schedule for 3 weeks (Days, 1, 4, 8, 11, 15, and 18). Final dose of AB79 was 7.5 mg/kg based on average body weight.
# Tumors were measured twice weekly using Vernier calipers. Tumor volumes were calculated using standard equation: V = W2 × L/2, where V = volume, W = width, and L = length for the tumor. […]
substance,measurement,setting,value
AB79: human monoclonal antibody that binds specifically to the CD38 transmembrane glycoprotein,Tumor Volume on Day 22 (±SEM),AB79 7.5 mg/kg BIW IP,1033.8 (±208.8)
same,GRI%,"AB79 7.5 mg/kg BIW IP, vs vehicle",29%
same,Tumor growth relative to vehicle-treated tumors (pairwise comparison),"each agent 7.5 mg/kg BIW, I-263a p = 0.105, daratumumab p < 0.001, AB79 p = 0.002, both combinations p < 0.001, data up to Day 22",tumor growth inhibition
